# Data taken from ChEMBL document CHEMBL1201862, “PubChem BioAssay data set” (2004).
# Several values for one entry are separate records, joined by “and”; a condition that tells them apart may be missing. Equal entries are not always repeated. Activity calls are given as the source filed them.
# How the values were obtained:
# [1] = A Cell Based Secondary Assay To Explore Cytotoxicity of Compounds that Sensitize Mycobacterium Tuberculosis to Beta-Lactam Antibiotics.; format: functional
# [2] = target: DNA dC->dU-editing enzyme APOBEC-3G (Homo sapiens, UniProt Q9HC16); assay: Dose Response confirmation of small molecule APOBEC3G DNA Deaminase Inhibitors via a fluorescence-based single-stranded DNA deaminase assay. [Related pubchem assays (depositor defined):AID493012, AID493028]; format: functional
# [3] = target: T1, Carboxy-terminal domain RNA polymerase II polypeptide A small phosphatase 1 (Homo sapiens, UniProt Q9GZU7); assay: inhibitors of CTDSP1, concentration-response testing, biochemical assay, absorbance-based, actives from ultra-high-throughput screening (AID 540297); format: functional
# T1 sequence (Q9GZU7 whole entry): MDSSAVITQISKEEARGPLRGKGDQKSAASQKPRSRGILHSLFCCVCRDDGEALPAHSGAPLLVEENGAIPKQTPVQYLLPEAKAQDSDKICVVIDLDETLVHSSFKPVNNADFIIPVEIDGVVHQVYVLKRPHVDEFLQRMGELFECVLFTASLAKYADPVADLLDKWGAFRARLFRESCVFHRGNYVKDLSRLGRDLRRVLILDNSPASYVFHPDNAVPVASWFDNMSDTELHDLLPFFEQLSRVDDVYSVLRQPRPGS
# [4] = target: Genome polyprotein (dengue virus type 2, UniProt P29990); assay: Dengue-2 NS5 methyltransferase inhibitors, primary screen, biochemical, confirmation dose response (AID 588689); format: functional
# [5] = target: T2, Voltage-gated N-type calcium channel alpha-1B subunit/Amyloid beta A4 precursor protein-binding family A member 1 (Homo sapiens, UniProt Q00975+Q02410); format: protein assay
# [6] = target: T2, Voltage-gated N-type calcium channel alpha-1B subunit/Amyloid beta A4 precursor protein-binding family A member 1; format: protein assay; remark: listed apart in the source
# [7] = target: Induced myeloid leukemia cell differentiation protein Mcl-1 (Homo sapiens, UniProt Q07820); format: functional
# [8] = target: T3, Hexokinase HKDC1 (Homo sapiens, UniProt Q2TB90); assay: HKDC1 hexokinase inhibitors, dose response, biochemical, W721R variant (AID 504729); format: functional
# T3 sequence (Q2TB90 whole entry): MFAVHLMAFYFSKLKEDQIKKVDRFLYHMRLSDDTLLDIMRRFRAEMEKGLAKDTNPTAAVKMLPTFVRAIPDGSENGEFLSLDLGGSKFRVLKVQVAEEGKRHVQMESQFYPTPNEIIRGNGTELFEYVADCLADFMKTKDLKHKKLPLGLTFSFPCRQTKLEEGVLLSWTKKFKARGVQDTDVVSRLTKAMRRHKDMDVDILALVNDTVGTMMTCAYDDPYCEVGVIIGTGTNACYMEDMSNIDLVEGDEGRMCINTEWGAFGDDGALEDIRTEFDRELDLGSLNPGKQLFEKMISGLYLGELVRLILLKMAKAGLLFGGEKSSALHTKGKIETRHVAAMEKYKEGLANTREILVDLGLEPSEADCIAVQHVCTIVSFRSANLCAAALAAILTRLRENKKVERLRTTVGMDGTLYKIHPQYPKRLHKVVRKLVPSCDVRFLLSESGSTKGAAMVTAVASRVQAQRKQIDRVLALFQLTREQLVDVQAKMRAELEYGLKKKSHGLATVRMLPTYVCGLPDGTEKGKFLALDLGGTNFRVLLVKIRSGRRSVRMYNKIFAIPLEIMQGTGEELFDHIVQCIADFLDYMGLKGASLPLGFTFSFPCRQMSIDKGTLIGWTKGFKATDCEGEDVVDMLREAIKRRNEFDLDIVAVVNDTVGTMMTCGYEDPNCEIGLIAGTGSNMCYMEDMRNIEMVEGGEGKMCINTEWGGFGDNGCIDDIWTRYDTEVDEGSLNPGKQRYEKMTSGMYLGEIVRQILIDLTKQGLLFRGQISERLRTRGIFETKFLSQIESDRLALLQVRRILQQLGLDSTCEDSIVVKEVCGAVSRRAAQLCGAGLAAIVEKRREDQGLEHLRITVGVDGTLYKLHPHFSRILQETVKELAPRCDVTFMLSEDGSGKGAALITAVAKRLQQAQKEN
# [9] = target: Glucose-6-phosphate 1-dehydrogenase (Homo sapiens, UniProt P11413); assay: human G6PD enzyme inhibitors, dose response, selectivity assay for P. falciparum G6PD inhibitor project, biochemical, fluorescence (AID 504792); format: functional
# [10] = target: T4, Hexokinase (Trypanosoma brucei, UniProt Q38C41); assay: Confirmation assay for inhibitors of Trypanosoma brucei hexokinase 1-Analogue-first series. [Related pubchem assays (depositor defined):AID1430, AID1632, AID2516, AID2560, AID2579, AID2600, AID449725, AID492951]; format: functional
# T4 sequence (Q38C41 whole entry): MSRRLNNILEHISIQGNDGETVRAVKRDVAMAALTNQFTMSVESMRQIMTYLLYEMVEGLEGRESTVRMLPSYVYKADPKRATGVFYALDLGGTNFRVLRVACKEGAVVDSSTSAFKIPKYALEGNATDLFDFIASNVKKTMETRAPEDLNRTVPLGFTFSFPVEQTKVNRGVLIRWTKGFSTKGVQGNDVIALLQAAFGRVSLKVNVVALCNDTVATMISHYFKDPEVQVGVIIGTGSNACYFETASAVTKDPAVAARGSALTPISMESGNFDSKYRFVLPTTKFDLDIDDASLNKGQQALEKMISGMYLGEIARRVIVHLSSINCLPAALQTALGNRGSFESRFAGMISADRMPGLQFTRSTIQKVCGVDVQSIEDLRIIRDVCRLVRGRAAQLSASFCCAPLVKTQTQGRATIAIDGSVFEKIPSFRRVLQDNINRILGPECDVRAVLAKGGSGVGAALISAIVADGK
# [11] = target: T5, Coagulation factor XII (Homo sapiens, UniProt P00748); format: functional;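 note: activated factor XIIa alpha cleaving a fluorogenic AMC peptide substrate; inhibitor potency from loss of enzyme activity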
# T5 sequence (P00748 whole entry): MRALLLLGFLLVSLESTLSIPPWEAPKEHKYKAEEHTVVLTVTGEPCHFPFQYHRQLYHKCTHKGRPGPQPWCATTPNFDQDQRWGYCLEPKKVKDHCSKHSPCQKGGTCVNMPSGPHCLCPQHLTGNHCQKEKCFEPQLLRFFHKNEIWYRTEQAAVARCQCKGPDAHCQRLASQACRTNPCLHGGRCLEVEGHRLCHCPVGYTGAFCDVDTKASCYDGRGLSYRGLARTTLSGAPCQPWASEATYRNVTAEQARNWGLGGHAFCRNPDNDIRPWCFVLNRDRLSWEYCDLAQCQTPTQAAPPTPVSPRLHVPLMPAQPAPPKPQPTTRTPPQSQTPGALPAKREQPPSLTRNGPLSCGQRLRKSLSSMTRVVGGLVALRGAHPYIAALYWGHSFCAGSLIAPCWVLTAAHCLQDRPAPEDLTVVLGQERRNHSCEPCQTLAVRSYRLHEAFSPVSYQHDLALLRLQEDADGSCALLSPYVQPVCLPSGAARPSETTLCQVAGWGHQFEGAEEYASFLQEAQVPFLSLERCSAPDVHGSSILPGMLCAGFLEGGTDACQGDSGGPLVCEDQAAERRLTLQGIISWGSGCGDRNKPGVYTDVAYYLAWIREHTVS
# [12] = A cytotoxicity screen of small molecule inhibitors of the PhoP region in Salmonella typhi identified in the primary screen. [Related pubchem assays: 1850, 1864, 1985 ]; format: functional
# [13] = target: T6, Aspartyl aminopeptidase (Plasmodium falciparum 3D7, UniProt Q8I2J3)
# T6 sequence (Q8I2J3 whole entry): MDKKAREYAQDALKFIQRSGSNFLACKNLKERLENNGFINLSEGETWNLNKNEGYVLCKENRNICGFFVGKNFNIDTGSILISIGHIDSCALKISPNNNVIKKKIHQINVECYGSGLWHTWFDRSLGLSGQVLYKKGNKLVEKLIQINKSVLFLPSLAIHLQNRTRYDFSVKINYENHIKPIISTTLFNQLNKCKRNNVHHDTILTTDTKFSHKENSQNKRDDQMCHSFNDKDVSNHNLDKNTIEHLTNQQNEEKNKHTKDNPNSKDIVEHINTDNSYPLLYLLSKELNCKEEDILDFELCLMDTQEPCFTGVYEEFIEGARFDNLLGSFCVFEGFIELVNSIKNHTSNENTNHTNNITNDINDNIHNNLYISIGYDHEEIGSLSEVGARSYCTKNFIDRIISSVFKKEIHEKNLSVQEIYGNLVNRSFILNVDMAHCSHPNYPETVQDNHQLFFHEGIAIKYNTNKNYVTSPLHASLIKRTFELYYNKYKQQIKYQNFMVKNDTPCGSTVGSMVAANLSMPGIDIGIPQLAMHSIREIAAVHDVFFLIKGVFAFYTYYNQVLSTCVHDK
# [14] = target: Procathepsin L (Homo sapiens, UniProt P07711)
# [15] = target: Large T antigen (Simian virus 40, UniProt P03070); format: functional, Betapolyomavirus macacae;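 note: Confirmatory-stage PubChem screen for compounds that inhibit SV40 T antigen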
# [16] = Luminescence Cell-Based Dose Confirmation HTS to Identify Inhibitors of Polyadenylation.; format: functional
# [17] = target: FAD-linked sulfhydryl oxidase ALR (Homo sapiens, UniProt P55789); assay: inhibitors of human ALR sulfhydryl oxidase, dose response, biochemical, H2O2 detection, luminescence, cherry-pick (AID 493248)
# [18] = test system: Streptococcus sp. 'group A'; assay: growth inhibition of control SK(-) GAS strain, dose response, counter-screen for streptokinase expression inhibitor project, luminescence, kanamycin, BacTiterGlo, confirmation (AID 1900); format: functional, organism-based
# [19] = THP-1 cell cytotoxicity, dose response, cytotoxicity control for non-replicating M. tuberculosis project (AID 489025); format: functional
# [20] = Vero E6 cell cytotoxicity, dose response, cytotoxicity control for non-replicating M. tuberculosis project, secondary assay (AID 492998); format: functional, VeroE6; conditions: Vero C1008
# [21] = inhibitors of intracellular T. cruzi replication, confirmation, NIH3T3 host cells, beta-gal luminescence (AID 2044); format: functional, cell-based;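 note: intracellular parasites grown in NIH/3T3 mouse fibroblasts as host cells; luminescent beta-galactosidase reporter signal from transgenic T. cruzi replicating inside host cells; inhibitors lower the luminescence signal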
# [22] = test system: Streptococcus; assay: Group A Streptococcus viability loss, dose response, counter-screen for streptokinase expression inhibitor project, luminescence, BacTiterGlo (AID 1915); format: functional, organism-based;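 note: potency for reduction of bacterial viability or growth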
# [23] = HepG2 cell cytotoxicity, dose response, cytotoxicity control for non-replicating M. tuberculosis project (AID 489018); format: functional; conditions: Mycobacterium tuberculosis
# [24] = cells; format: functional
# [25] = test system: INS1; assay: beta cell apoptosis inhibitors, cytokine rescue, dose response, luminescence, retest (AID 449756); format: functional, cell-based; conditions: Rattus norvegicus, INS1;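 note: cell death triggered by IL-1 beta plus TNF-alpha plus IFN-gamma mixture; protective hits raise ATP signal compared with cytokine alone wells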
# [26] = cytotoxicity toward NIH3T3 fibroblasts, dose response, counter-screen, cell-based, ATP luminescence, mouse fibroblasts (AID 2010); format: functional;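 note: cells exposed to compound for about 90 hours before reading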
# [27] = target: T7, Streptokinase A (Streptococcus pyogenes serotype M1, UniProt P10520); assay: S. pyogenes streptokinase expression inhibitors, potency, dose response, plasminogen activation absorbance, OD405 (AID 1914); format: functional, Streptococcus pyogenes M1 GAS;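 note: secreted streptokinase activity via plasminogen activation per viability signal from cell pellet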
# T7 sequence (P10520 whole entry): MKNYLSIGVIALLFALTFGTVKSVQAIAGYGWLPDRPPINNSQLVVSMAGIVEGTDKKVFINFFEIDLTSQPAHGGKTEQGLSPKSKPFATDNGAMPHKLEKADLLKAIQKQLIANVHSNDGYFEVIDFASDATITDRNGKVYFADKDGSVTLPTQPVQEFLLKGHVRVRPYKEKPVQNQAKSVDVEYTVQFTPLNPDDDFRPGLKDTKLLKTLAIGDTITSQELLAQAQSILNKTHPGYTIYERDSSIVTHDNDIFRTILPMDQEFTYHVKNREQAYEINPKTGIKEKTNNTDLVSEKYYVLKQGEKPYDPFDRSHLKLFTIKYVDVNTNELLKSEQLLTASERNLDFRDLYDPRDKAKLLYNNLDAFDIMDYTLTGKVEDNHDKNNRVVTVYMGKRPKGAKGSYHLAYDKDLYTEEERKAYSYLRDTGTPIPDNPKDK
# Sequence of DNA dC->dU-editing enzyme APOBEC-3G (Q9HC16 whole entry, the tested form may be a part): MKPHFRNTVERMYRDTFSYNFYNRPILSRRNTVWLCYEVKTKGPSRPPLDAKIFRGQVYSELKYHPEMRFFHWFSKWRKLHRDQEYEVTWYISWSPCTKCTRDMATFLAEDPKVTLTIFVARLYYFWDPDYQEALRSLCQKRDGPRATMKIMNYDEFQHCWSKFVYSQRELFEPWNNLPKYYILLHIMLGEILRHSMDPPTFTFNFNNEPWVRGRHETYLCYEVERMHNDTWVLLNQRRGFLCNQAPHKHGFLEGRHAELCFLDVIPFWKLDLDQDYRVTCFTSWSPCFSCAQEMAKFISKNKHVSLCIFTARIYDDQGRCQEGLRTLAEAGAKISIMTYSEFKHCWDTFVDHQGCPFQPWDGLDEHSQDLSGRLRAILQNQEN
# Sequence of Induced myeloid leukemia cell differentiation protein Mcl-1 (Q07820 whole entry): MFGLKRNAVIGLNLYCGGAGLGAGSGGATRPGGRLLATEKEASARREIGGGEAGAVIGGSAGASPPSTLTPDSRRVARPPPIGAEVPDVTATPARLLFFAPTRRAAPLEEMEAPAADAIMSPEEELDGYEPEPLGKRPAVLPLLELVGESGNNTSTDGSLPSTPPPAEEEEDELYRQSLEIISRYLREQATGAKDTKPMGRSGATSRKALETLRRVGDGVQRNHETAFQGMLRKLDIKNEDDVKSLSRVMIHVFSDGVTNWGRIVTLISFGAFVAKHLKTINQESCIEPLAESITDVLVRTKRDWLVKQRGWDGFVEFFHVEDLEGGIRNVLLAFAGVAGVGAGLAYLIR
# T2 sequence (Q00975 whole entry): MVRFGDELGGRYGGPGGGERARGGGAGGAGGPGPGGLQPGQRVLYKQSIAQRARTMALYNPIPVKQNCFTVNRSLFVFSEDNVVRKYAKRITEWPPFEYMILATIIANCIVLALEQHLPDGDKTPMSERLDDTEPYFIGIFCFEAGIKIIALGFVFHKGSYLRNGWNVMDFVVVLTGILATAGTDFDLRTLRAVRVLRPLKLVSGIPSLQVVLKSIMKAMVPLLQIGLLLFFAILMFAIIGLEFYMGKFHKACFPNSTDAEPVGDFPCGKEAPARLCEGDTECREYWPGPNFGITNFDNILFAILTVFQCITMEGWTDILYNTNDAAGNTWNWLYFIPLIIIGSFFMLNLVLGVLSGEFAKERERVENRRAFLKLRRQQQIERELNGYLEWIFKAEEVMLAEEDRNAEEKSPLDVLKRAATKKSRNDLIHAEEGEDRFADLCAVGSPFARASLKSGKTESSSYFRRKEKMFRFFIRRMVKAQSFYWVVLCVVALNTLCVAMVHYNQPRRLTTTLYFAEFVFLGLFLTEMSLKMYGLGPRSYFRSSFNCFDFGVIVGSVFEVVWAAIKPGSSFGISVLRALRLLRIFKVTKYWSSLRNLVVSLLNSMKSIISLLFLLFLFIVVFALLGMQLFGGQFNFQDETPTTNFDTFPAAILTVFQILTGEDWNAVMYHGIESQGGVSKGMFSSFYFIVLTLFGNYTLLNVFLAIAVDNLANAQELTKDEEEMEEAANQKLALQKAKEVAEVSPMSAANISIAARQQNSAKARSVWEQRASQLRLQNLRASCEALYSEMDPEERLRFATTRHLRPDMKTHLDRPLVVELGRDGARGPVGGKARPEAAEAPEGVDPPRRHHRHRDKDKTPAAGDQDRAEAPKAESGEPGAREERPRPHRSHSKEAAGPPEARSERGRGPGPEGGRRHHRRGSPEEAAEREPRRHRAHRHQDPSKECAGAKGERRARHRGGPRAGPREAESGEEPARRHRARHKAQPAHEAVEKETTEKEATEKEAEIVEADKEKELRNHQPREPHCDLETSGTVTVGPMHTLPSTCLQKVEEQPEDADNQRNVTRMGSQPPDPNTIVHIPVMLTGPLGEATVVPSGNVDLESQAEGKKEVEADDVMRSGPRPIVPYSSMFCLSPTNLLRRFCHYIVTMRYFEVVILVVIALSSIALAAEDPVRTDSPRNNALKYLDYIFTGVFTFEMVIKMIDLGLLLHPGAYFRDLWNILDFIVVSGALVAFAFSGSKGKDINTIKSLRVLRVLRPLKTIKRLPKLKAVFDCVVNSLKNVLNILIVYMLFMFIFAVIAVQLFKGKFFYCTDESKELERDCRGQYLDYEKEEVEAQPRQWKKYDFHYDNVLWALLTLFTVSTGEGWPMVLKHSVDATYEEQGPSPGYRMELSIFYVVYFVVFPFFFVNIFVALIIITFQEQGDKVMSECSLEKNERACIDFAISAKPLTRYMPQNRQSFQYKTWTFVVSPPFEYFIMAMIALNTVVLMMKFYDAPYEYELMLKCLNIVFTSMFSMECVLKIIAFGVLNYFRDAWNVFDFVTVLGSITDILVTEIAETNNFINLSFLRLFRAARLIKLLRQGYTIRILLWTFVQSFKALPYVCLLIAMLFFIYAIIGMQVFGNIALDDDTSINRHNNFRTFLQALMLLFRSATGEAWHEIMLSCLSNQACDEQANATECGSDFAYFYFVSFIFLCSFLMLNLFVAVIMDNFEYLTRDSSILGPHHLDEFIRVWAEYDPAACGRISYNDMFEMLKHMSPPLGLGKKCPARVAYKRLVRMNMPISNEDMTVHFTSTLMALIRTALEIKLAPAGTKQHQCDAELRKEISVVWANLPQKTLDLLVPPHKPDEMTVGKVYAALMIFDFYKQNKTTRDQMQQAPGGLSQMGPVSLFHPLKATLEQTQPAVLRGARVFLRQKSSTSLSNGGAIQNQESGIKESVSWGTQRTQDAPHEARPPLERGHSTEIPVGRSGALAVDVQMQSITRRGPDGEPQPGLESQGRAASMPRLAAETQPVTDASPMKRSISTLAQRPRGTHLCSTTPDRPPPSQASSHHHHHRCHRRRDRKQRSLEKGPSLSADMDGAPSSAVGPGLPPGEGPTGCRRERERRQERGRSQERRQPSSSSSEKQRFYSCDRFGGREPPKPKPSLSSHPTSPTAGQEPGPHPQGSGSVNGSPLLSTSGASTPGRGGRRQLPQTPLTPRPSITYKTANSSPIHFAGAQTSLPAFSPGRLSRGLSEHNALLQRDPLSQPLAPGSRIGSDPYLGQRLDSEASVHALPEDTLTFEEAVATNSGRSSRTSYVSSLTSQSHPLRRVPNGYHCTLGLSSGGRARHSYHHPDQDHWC
# T2 sequence (Q02410 whole entry): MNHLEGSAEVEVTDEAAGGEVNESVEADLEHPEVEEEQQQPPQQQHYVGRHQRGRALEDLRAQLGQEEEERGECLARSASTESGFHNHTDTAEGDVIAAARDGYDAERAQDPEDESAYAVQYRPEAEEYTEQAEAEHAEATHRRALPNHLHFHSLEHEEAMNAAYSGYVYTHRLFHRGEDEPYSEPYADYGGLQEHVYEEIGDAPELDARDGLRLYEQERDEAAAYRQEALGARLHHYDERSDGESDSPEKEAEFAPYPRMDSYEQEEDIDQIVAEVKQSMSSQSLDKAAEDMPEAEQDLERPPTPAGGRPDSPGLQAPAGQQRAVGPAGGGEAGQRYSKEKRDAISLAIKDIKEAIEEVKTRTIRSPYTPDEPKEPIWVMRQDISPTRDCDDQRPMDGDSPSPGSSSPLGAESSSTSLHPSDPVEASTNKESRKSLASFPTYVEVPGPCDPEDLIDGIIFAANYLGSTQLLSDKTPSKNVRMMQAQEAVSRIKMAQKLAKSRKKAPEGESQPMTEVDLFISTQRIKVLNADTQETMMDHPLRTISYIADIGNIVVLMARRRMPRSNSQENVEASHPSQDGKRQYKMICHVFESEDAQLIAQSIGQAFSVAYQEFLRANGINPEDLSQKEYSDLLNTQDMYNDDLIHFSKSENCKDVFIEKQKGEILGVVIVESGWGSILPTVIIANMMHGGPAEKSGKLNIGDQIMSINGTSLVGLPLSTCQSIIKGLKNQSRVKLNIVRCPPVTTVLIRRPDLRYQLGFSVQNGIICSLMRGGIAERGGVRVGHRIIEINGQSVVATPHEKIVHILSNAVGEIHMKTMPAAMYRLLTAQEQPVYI
# Sequence of Large T antigen (P03070 whole entry): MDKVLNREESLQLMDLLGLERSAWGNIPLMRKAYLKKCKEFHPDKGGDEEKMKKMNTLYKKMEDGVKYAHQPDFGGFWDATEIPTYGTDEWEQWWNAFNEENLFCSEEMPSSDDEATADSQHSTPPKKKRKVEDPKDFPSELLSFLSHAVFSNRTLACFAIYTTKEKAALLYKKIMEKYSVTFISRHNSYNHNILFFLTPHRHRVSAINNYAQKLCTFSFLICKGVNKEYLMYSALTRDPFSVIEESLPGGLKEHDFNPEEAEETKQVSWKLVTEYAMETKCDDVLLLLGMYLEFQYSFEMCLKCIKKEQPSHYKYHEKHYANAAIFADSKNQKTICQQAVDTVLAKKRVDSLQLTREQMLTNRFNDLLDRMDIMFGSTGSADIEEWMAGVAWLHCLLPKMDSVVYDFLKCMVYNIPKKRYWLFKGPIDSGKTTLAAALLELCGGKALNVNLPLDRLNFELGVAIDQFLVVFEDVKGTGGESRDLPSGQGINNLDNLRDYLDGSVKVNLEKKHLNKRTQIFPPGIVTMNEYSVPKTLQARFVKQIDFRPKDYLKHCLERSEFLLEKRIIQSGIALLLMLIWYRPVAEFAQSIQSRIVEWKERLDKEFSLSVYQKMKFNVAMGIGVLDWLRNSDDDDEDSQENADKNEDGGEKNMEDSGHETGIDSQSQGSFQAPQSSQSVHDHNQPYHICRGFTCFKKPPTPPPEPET
# Sequence of Procathepsin L (P07711 whole entry): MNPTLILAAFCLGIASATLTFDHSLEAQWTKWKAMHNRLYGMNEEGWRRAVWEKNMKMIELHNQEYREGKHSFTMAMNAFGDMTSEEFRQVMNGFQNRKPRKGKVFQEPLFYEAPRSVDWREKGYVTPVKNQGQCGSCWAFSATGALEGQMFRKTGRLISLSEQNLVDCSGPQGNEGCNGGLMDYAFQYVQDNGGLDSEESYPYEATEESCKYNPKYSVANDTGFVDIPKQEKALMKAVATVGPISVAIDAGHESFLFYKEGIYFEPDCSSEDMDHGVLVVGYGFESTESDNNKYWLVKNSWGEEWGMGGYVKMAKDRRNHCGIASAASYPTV
compound,measurement,setting,value
COc1ccc([N+](=O)[O-])cc1C1NN=C(c2ccccc2O)S1 (configuration not stated),CC50,[1],> 40 µM (active)
S=C(c1ccc(-c2ccccc2Cl)o1)N1CCOCC1,IC50,[2],44.6 µM (active)
CCC1=NN2C(=N)/C(=C\c3ccc(OCc4cc(=O)n5nc(CC)sc5n4)c(OC)c3)C(=O)N=C2S1,IC50,[3],5.99 µM (active)
same,IC50,[4],61.9 µM (active)
same,IC50,[5],> 56.8 µM (not active)
same,IC50,[6],> 50 µM (inactive)
same,IC50,[7],2.95 µM (active)
same,IC50,[8],41.1 µM (inactive)
COc1ccc(C(=O)Nc2cc(Cl)ccc2C(=O)O)cc1,IC50,[9],> 80 µM (inactive)
same,IC50,[10],11.2 µM (active) and 8.23 µM (active)
O=C(O)c1ccc(NCc2nc3ccccc3n2Cc2ccccc2)cc1,IC50,[11],> 50 µM (inactive)
O=[N+]([O-])c1cc([N+](=O)[O-])c2cccnc2c1Oc1ccccc1O,EC50,[12],> 50 µM (active)
same,IC50,[13],3.27 µM (active)
same,IC50,[7],2.82 µM (active)
same,IC50,[14],> 59.6 µM (not active)
same,IC50,[15],7.81 µM (active)
O=C(NNC(=S)NC1CC2C=CC1C2)c1cccnc1 (configuration not stated),EC50,[16],> 120 µM (not active)
C=CCn1c(S)nnc1-c1cccc([N+](=O)[O-])c1,IC50,[2],8.72 µM (active)
same,AC50,[17],9.06 µM (active)
O=C1CC(c2ccc(Cl)cc2)N2CCNC2=C1C(=O)Nc1ccccc1 (configuration not stated),EC50,[12],> 50 µM (active)
CCN1CCN(C(=O)c2cc3cc(Cl)ccc3[nH]2)CC1,EC50,[12],> 50 µM (active)
COCCCN=C(S)NN=C(S)Nc1ccccc1,IC50,[2],16.4 µM (active)
CC(NC(=O)c1ccc(Br)cc1)c1ccccc1 (configuration not stated),EC50,[16],> 120 µM (not active)
CCN(c1ccccc1)S(=O)(=O)c1ccc(C(=O)Nc2nnc(COC)o2)cc1,IC50,[11],> 50 µM (inactive)
O=C(COC(=O)Cc1ccc(S(=O)(=O)N2CCOCC2)s1)Nc1ccc2c(c1)OCO2,EC50,[16],> 120 µM (not active)
Cc1ccc(OCC(=O)Nc2ccc3c4c(cccc24)CC3)c(C)c1,CC50,[1],> 40 µM (active)
O=C(Nc1cc(Cl)ccc1C(=O)O)c1ccc2c(c1)CCC2,IC50,[10],4.83 µM (active)
CC(C)(C)c1cc(C(=O)N/N=C/c2ccc([N+](=O)[O-])s2)[nH]n1,EC50,[18],12.3 µM (active)
same,CC50,[19],18.9 µM (active)
same,CC50,[20],12 µM (active)
same,EC50,[21],0.15 µM (active)
same,EC50,[22],15.8 µM (active)
same,CC50,[23],> 20 µM (active)
same,IC50,[24],5.22 µM (active)
same,AC50,[25],6.87 µM (active)
same,EC50,[26],> 60 µM (not active)
same,EC50,[27],> 150 µM (not active)
